Results as given in patent US5462935A, “Cephalosporin compounds” (Lucky Limited, priority 1990, dated 1995).
≈ marks a conversion by molar mass, not a printed value. Where two headings read alike, the source gives them in different places.

Assays:
[1] = in vivo absorbency test (plasma concentration, pharmacokinetic parameters); set-up: species or system SD rats (male); conditions: rat, iv, 20 mg/kg, rats; for half-life / concentration at 1 min / concentration at 2.5 min / concentration at 5 min / concentration at 10 min / concentration at 20 min / concentration at 40 min / concentration at 1 h / concentration at 2 h / concentration at 3 h / AUC: plasma; for half-life / AUC: Two-Compartment Model; for concentration at 1 min / concentration at 2.5 min / concentration at 5 min / concentration at 10 min / concentration at 20 min / concentration at 40 min / concentration at 1 h / concentration at 2 h / concentration at 3 h: read-out: Plasma Conc.; for concentration at 1 h: 60 min; for concentration at 2 h: 120 min; for concentration at 3 h: 180 min; for AUC: read-out: ACU (converted); for dose excreted: urine, read-out: Urinary recovery
Description: In addition to the in vitro tests described above, in vivo absorbency tests for the two selected compounds of formulas (I-S-1) and (I-R-1), along with Ceftadizime, were carried out by administering intravenously, in a dose of 20 mg/kg, each of these two compounds into SD rats (male) weighing 220 to 340 g; […], which were analyzed by employing the bio-assay or agar well method. About 10 to 15 rats were used for each of the compounds.
Notes: (1) Two-Compartment Model
(3) Tested Animal: Rats(male; 220-340 g)

[2] = acute toxicity test, intravenous; conditions: mouse, in vivo, ICR mice, observed for 14 days
Source text: The results are shown in the last row of Table 2.

[3] = tested on: Klebsiella pneumoniae ATCC 10031; assay: minimal inhibitory concentration, two-fold agar dilution; assay type: cell-based; conditions: ATCC10031, Muller-Hinton agar, 37° C., 20 hours
Method in brief: (§1)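 Read-out is the minimal inhibitory concentration after 20 h at 37° C. Compounds are serially diluted two-fold into Mueller-Hinton agar and seeded with bacteria at 10^7 CFU/ml.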

[4] = tested on: Proteus vulgaris ATCC 6059; assay: as above; assay type: cell-based; conditions: ATCC6059, Muller-Hinton agar, 37° C., 20 hours
Method in brief: as §1

[5] = tested on: Pseudomonas aerugionsa ATCC 10145; assay: as above; assay type: cell-based; conditions: ATCC10145, Muller-Hinton agar, 37° C., 20 hours
Method in brief: as §1

[6] = tested on: Staphylococcus epidermidis ATCC 10537; assay: as above; assay type: cell-based; conditions: ATCC10537, Muller-Hinton agar, 37° C., 20 hours
Method in brief: as §1

[7] = tested on: Pseudomonas aeruginosa ATCC 25619; assay: as above; assay type: cell-based; conditions: ATCC25619, Muller-Hinton agar, 37° C., 20 hours
Method in brief: as §1

[8] = tested on: Shigella sonnei ATCC 11060; assay: as above; assay type: cell-based; conditions: ATCC11060, Muller-Hinton agar, 37° C., 20 hours
Method in brief: as §1

[9] = tested on: Streptococcus faecalis ATCC 29212; assay: as above; assay type: cell-based; conditions: Enterococcus faecalis, ATCC29212, Muller-Hinton agar, 37° C., 20 hours
Method in brief: as §1

[10] = tested on: Serratia marcescens ATCC 27117; assay: as above; assay type: cell-based; conditions: ATCC27117, Muller-Hinton agar, 37° C., 20 hours
Method in brief: as §1

[11] = tested on: Staphylococcus aureus ATCC 6638p; assay: as above; assay type: cell-based; conditions: ATCC6638P, 20 h
Method in brief: (§2)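 Two-fold serial dilutions of each compound were dispersed in Mueller-Hinton agar, inoculated with test strain at 10^7 CFU/ml, and incubated at 37° C for 20 hours to determine MIC.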

[12] = tested on: Proteus mirabilis ATCC 25933; assay: as above; assay type: cell-based; conditions: ATCC25933, Muller-Hinton agar, 37° C., 20 hours
Method in brief: as §1

[13] = tested on: Salmonella typhimurium ATCC 14028; assay: as above; assay type: cell-based; conditions: Salmonella enterica, Muller-Hinton agar, 37° C., 20 hours
Method in brief: as §1

[14] = tested on: Bacillus megaterium ATCC 9885; assay: as above; assay type: cell-based; conditions: Priestia megaterium, ATCC9885, 20 h
Method in brief: as §1

[15] = tested on: Providencia rettgeri ATCC 9250; assay: as above; assay type: cell-based; conditions: ATCC9250, Muller-Hinton agar, 37° C., 20 hours
Method in brief: as §1

[16] = tested on: ATCC 12228; assay: as above; assay type: cell-based; conditions: Staphylococcus faecalis, ATCC12228, 20 h
Method in brief: as §2

[17] = tested on: Pseudomonas aerugionsa ATCC 27853; assay: as above; assay type: cell-based; conditions: ATCC27853, Muller-Hinton agar, 37° C., 20 hours
Method in brief: as §1

[18] = tested on: Shigella flexneri ATCC 11836; assay: as above; assay type: cell-based; conditions: ATCC11836, Muller-Hinton agar, 37° C., 20 hours
Method in brief: as §1

[19] = tested on: Citrobacter freundii ATCC 8090; assay: as above; assay type: cell-based; conditions: ATCC8090, Muller-Hinton agar, 37° C., 20 hours
Method in brief: as §1

[20] = tested on: Micrococcus luteus ATCC 9341; assay: as above; assay type: cell-based; conditions: ATCC9341, Muller-Hinton agar, 37° C., 20 hours
Method in brief: as §1

[21] = tested on: Escherichia coli ATCC 25922; assay: as above; assay type: cell-based; conditions: ATCC25922, Muller-Hinton agar, 37° C., 20 hours
Method in brief: as §1

[22] = tested on: Escherichia coli ATCC 10536; assay: as above; assay type: cell-based; conditions: ATCC10536, Muller-Hinton agar, 37° C., 20 hours
Method in brief: as §1

[23] = tested on: Enterobacter aerogenes ATCC 29751; assay: as above; assay type: cell-based; conditions: Klebsiella aerogenes, ATCC29751, 20 h
Method in brief: as §1

[24] = tested on: Enterobacter cloacae ATCC 27508; assay: as above; assay type: cell-based; conditions: ATCC27508, Muller-Hinton agar, 37° C., 20 hours
Method in brief: as §1

[25] = tested on: Morganella morganii ATCC 8076h; assay: as above; assay type: cell-based; conditions: ATCC8076H, 20 h
Method in brief: as §2

[26] = tested on: Bacillus cereus ATCC 11778; assay: as above; assay type: cell-based; conditions: Bacillus cereus, ATCC11778, 20 h
Method in brief: as §1

[27] = tested on: Acinetobacter calcoaceticus ATCC 15473; assay: as above; assay type: cell-based; conditions: ATCC15473, Muller-Hinton agar, 37° C., 20 hours
Method in brief: as §1

C[C@H](O/N=C(\C(=O)NC1C(=O)N2C(C(=O)[O-])=C(CSc3nc(N)cc(N)[n+]3N)CS[C@H]12)c1csc(N)n1)C(=O)O (stereo partly drawn) [I-S-1, 7-[(Z)-2-(2-aminothiazol-4-yl)-2-[(S)-1-carboxyeth-1-oxyimino]acetamido]-3-[(1,4,6-triaminopyrimidinium-2-yl)thiomethyl]-3-cephem-4-carboxylate]
half-life ([1]; read-out: T1/1(β)): 37.5 min | half-life ([1]; read-out: T1/2(α)): 7.6 min | concentration at 1 min [1]: 147000 ng/mL | concentration at 2.5 min [1]: 102000 ng/mL | concentration at 5 min [1]: 72600 ng/mL | concentration at 10 min [1]: 57300 ng/mL | concentration at 20 min [1]: 37000 ng/mL | concentration at 40 min [1]: 19600 ng/mL | concentration at 1 h [1]: 11200 ng/mL | concentration at 2 h [1]: 3100 ng/mL | concentration at 3 h [1]: 1500 ng/mL | AUC [1]: 47700 ng·h/mL | dose excreted [1]: 93% | LD50 at 336 h [2]: > 5000 mg/kg | MIC [3]: 0.031 µg/mL (≈ 0.0508 µM) | MIC [4]: 0.016 µg/mL (≈ 0.0262 µM) | MIC [5]: 1 µg/mL (≈ 1.64 µM) | MIC [6]: 2 µg/mL (≈ 3.28 µM) | MIC [7]: 0.5 µg/mL (≈ 0.819 µM) | MIC [8]: 0.031 µg/mL (≈ 0.0508 µM) | MIC [9]: > 128 µg/mL | MIC [10]: 0.031 µg/mL (≈ 0.0508 µM) | MIC [11]: 4 µg/mL (≈ 6.55 µM) | MIC [12]: 0.016 µg/mL (≈ 0.0262 µM) | MIC [13]: 0.063 µg/mL (≈ 0.103 µM) | MIC [14]: 0.13 µg/mL (≈ 0.213 µM) | MIC [15]: ≤ 0.008 µg/mL | MIC [16]: 2 µg/mL (≈ 3.28 µM) | MIC [17]: 0.5 µg/mL (≈ 0.819 µM) | MIC [18]: 0.016 µg/mL (≈ 0.0262 µM) | MIC [19]: 0.031 µg/mL (≈ 0.0508 µM) | MIC [20]: 0.25 µg/mL (≈ 0.409 µM) | MIC [21]: 0.031 µg/mL (≈ 0.0508 µM) | MIC [22]: 0.031 µg/mL (≈ 0.0508 µM) | MIC [23]: 0.5 µg/mL (≈ 0.819 µM) | MIC [24]: 0.016 µg/mL (≈ 0.0262 µM) | MIC [25]: ≤ 0.008 µg/mL | MIC [26]: 32 µg/mL (≈ 52.4 µM) | MIC [27]: 2 µg/mL (≈ 3.28 µM)

C[C@@H](O/N=C(\C(=O)NC1C(=O)N2C(C(=O)[O-])=C(CSc3nc(N)cc(N)[n+]3N)CS[C@H]12)c1csc(N)n1)C(=O)O (stereo partly drawn) [I-R-1, 7-[(Z)-2-(2-aminothiazol-4-yl)-2-[(R)-1-carboxyeth-1-oxyimino]acetamido]-3-[(1,4,6-triaminopyrimidinium-2-yl)thiomethyl]-3-cephem-4-carboxylate]
half-life ([1]; read-out: T1/1(β)): 30 min | half-life ([1]; read-out: T1/2(α)): 4.7 min | concentration at 1 min [1]: 170000 ng/mL | concentration at 2.5 min [1]: 102000 ng/mL | concentration at 5 min [1]: 76900 ng/mL | concentration at 10 min [1]: 57000 ng/mL | concentration at 20 min [1]: 39100 ng/mL | concentration at 40 min [1]: 17700 ng/mL | concentration at 1 h [1]: 10100 ng/mL | concentration at 2 h [1]: 2500 ng/mL | concentration at 3 h [1]: 700 ng/mL | AUC [1]: 45800 ng·h/mL | dose excreted [1]: 91% | LD50 at 336 h [2]: > 5000 mg/kg | MIC [3]: 0.031 µg/mL (≈ 0.0508 µM) | MIC [4]: 0.031 µg/mL (≈ 0.0508 µM) | MIC [5]: 2 µg/mL (≈ 3.28 µM) | MIC [6]: 4 µg/mL (≈ 6.55 µM) | MIC [7]: 0.5 µg/mL (≈ 0.819 µM) | MIC [8]: 0.016 µg/mL (≈ 0.0262 µM) | MIC [9]: > 128 µg/mL | MIC [10]: 0.031 µg/mL (≈ 0.0508 µM) | MIC [11]: 8 µg/mL (≈ 13.1 µM) | MIC [12]: 0.031 µg/mL (≈ 0.0508 µM) | MIC [13]: 0.063 µg/mL (≈ 0.103 µM) | MIC [14]: 0.5 µg/mL (≈ 0.819 µM) | MIC [15]: ≤ 0.008 µg/mL | MIC [16]: 2 µg/mL (≈ 3.28 µM) | MIC [17]: 1 µg/mL (≈ 1.64 µM) | MIC [18]: ≤ 0.008 µg/mL | MIC [19]: 0.031 µg/mL (≈ 0.0508 µM) | MIC [20]: 1 µg/mL (≈ 1.64 µM) | MIC [21]: 0.031 µg/mL (≈ 0.0508 µM) | MIC [22]: 0.031 µg/mL (≈ 0.0508 µM) | MIC [23]: 0.5 µg/mL (≈ 0.819 µM) | MIC [24]: 0.016 µg/mL (≈ 0.0262 µM) | MIC [25]: ≤ 0.008 µg/mL | MIC [26]: 128 µg/mL (≈ 210 µM) | MIC [27]: 2 µg/mL (≈ 3.28 µM)
